Target: T1, RORγ (Homo sapiens, UniProt P51449)
T1 construct: expressed in transfected cells; host or cells: 293FT cells (Invitrogen), expression vector pFN26A (Promega)
T1 sequence (P51449 269-508 limits assumed): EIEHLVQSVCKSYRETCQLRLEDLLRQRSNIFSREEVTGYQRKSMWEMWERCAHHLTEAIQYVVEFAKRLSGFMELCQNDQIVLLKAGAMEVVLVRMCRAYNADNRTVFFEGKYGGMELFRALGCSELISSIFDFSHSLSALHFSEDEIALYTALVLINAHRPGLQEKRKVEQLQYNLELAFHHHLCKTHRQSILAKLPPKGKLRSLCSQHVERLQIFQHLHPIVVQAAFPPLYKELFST
Assay: RORγ GAL4 reporter gene assay (luciferase readout, 293FT cells)
Format: cell-based
Details: inhibition of RORγ (GAL4-RORγ-LBD) in transfected 293FT cells, luciferase signal, overnight incubation; read-out: mean pIC50 (converted)
Protocol: RORγ GAL4 Reporter Gene Assay
Example inhibitors 1-47 were tested for their ability to inhibit RORγ activity in a RORγ GAL4 reporter gene assay. The assay procedure and results are described below.
RORγ GAL4 Reporter Gene Assay Description
A GAL4 one-hybrid reporter system employing luciferase readout was established to determine inhibition of RORγ in 293FT cells. The RORγ ligand-binding domain (LBD) was fused to the yeast GAL4 DNA binding domain (DBD) and placed under the control of the human cytomegalovirus (CMV) immediate early promoter, using expression vector pFN26A (Promega) and standard recombinant DNA cloning methods. To serve as a control in the assay, a similar vector was generated in which the GAL4-DBD was fused to Herpes simplex virus protein 16 (VP16), a constitutive transcriptional activator.
To monitor the inhibitory effect of compounds on RORγ, a transcriptional reporter construct was used. The pGL4.35 vector (Promega) contains nine copies of the GAL4 Upstream Activator Sequence (UAS). This sequence drives the transcription of the luciferase reporter gene luc2P in response to binding of a fusion protein containing the GAL4 DNA binding domain, as for example expressed by the GAL4-RORγ-LBD and GAL4-VP16 expression vectors described above. To allow a GAL4 fusion protein to drive the expression of the luciferase reporter, the pGL4.35 expression vector and the appropriate GAL4 fusion protein expression vector were bulk transfected in the 293FT cells using standard transfection techniques.
The day after transfection, cells were plated into 96 well plates, test compound was added and the plates were incubated overnight. Subsequently, the firefly luciferase activity was quantified using luciferase detection reagent and luminescence readout.
Detailed Assay Description
293FT cells (Invitrogen) were transfected with a GAL4 fusion protein expression vector (as described above) and the transcriptional reporter construct (pGL4.35, Promega). 60 μL of TransIT-293 transfection reagent (Mirus Bio) was added drop wise to 1500 μl Opti-MEM I Reduced Serum Medium (Invitrogen) and incubated at room temperature (RT) for 5 to 20 minutes. 1500 μL of this reagent mixture was added to 5 μg of GAL4 fusion protein expression vector and 5 μg of the transcriptional reporter construct, and incubated at RT for 20 minutes.
To harvest 293FT cells from a T75 flask, first the culture medium was taken off the cells. Subsequently, the cells were washed with Phosphate Buffered Saline (PBS) (Lonza), after which the PBS was removed. To dissociate the cells, 1 ml of TrypLE Express (Invitrogen) was added to the flask, followed by incubation at RT until the cells visually started to detach. Cells were collected in 5 mL of assay medium (DMEM culture medium (Lonza), 10% dialyzed FBS (Invitrogen) and Pen/Strep (Lonza)) to achieve a single cell suspension. 10×10^6 cells were spun down and re-suspended in 10 mL of assay medium. Subsequently, the cell suspension was added to the transfection mix tube, and then transferred as a whole to a T75 flask (Greiner), followed by overnight (16-24 hours) incubation at 37° C. and 5% CO2.
For compound screening, the cells were harvested (as described above) and counted. 13×10^6 cells were spun down, the supernatant was aspirated and the cells were re-suspended in 17.3 mL of assay medium obtaining a cell suspension of 0.75×10^6 cells/mL. 80 μL of cell suspension (60,000 cells) was plated per well into a white, flat bottom, tissue culture treated, 96 well screening plates (Greiner).
Test compounds were diluted, starting from a 10 mM dimethylsulf oxide (DMSO) stock solution, to serial dilutions in DMSO at 500× the final test concentration. Subsequently, these solutions were diluted to 5× the final test concentration in two 10-fold-dilution steps in assay medium. The final DMSO concentration of the 5× test compound solution was 1%. […]

Compound: O=C(Cc1ccc(S(=O)(=O)CC2CC2)cc1)Nc1ccc(-c2ccccc2)c(Oc2ccccc2)c1 [Example 1, 2-(4-cyclopropylmethanesulfonylphenyl)-N-(3-phenoxy-4-phenylphenyl)acetamide]
- IC50: ≤ 1000 nM

Compound: COc1cccc(Oc2cc(NC(=O)Cc3ccc(S(=O)(=O)CC4CC4)cc3)ccc2-c2cccc(F)c2)c1 [Example 2, 2-(4-cyclopropylmethanesulfonylphenyl)-N-[4-(3-fluorophenyl)-3-(3-methoxyphenoxy)phenyl]acetamide]
- IC50: ≤ 100 nM

Compound: COc1cccc(Oc2cc(NC(=O)Cc3ccc(S(=O)(=O)CC4CC4)cc3)ccc2-n2cnc(C)c2)c1 [Example 3, 2-(4-cyclopropylmethanesulfonylphenyl)-N-[3-(3-methoxyphenoxy)-4-(4-methyl-1H-imidazol-1-yl)phenyl]acetamide]
- IC50: ≤ 100 nM

Compound: O=C(Cc1ccc(S(=O)(=O)CC2CC2)cc1)Nc1ccc(-c2cccc(F)c2)c(Oc2cccc(Cl)c2)c1 [Example 4, N-[3-(3-chlorophenoxy)-4-(3-fluorophenyl)phenyl]-2-(4-cyclopropylmethanesulfonylphenyl)acetamide]
- IC50: ≤ 100 nM

Compound: O=C(Cc1ccc(S(=O)(=O)CC2CC2)cc1)Nc1ccc(-c2ccc(F)c(F)c2)c(Oc2cccc(Cl)c2)c1 [Example 5, N-[3-(3-chlorophenoxy)-4-(3,4-difluorophenyl)phenyl]-2-(4-cyclopropylmethanesulfonylphenyl)acetamide]
- IC50: ≤ 100 nM

Compound: N#Cc1cccc(Oc2cc(NC(=O)Cc3ccc(S(=O)(=O)CC4CC4)cc3)ccc2-c2ccc(F)c(F)c2)c1 [Example 6, N-[3-(3-cyanophenoxy)-4-(3,4-difluorophenyl)phenyl]-2-(4-cyclopropylmethanesulfonylphenyl)acetamide]
- IC50: ≤ 100 nM

Compound: COc1cccc(Oc2cc(NC(=O)Cc3ccc(S(=O)(=O)CC4CC4)cc3)ccc2-n2nccc2C)c1 [Example 7, 2-(4-cyclopropylmethanesulfonylphenyl)-N-[3-(3-methoxyphenoxy)-4-(5-methyl-1H-pyrazol-1-yl)phenyl]acetamide]
- IC50: ≤ 100 nM

Compound: O=C(Cc1ccc(S(=O)(=O)CC2CC2)cc1)Nc1ccc(-c2cc(F)cc(F)c2)c(Oc2cccc(Cl)c2)c1 [Example 8, N-[3-(3-chlorophenoxy)-4-(3,5-difluorophenyl)phenyl]-2-(4-cyclopropylmethanesulfonylphenyl)acetamide]
- IC50: ≤ 100 nM

Compound: N#Cc1ccc(-c2ccc(NC(=O)Cc3ccc(S(=O)(=O)CC4CC4)cc3)cc2Oc2cccc(F)c2)cc1 [Example 9, N-[4-(4-cyanophenyl)-3-(3-fluorophenoxy)phenyl]-2-(4-cyclopropylmethanesulfonylphenyl)acetamide]
- IC50: ≤ 100 nM

Compound: N#Cc1cccc(-c2ccc(NC(=O)Cc3ccc(S(=O)(=O)CC4CC4)cc3)cc2Oc2cccc(Cl)c2)c1 [Example 10, N-[3-(3-chlorophenoxy)-4-(3-cyanophenyl)phenyl]-2-(4-cyclopropylmethanesulfonylphenyl)acetamide]
- IC50: ≤ 100 nM

Compound: O=C(Cc1ccc(S(=O)(=O)CC2CC2)cc1)Nc1ccc(-c2cccc(F)c2)c(Oc2cccc(C(F)(F)F)c2)c1 [Example 11, 2-(4-cyclopropylmethanesulfonylphenyl)-N-[4-(3-fluorophenyl)-3-[3-(trifluoromethyl)phenoxy]phenyl]acetamide]
- IC50: ≤ 100 nM

Compound: O=C(Cc1ccc(S(=O)(=O)CC2CC2)cc1)Nc1ccc(-c2ccc(F)cc2)c(Oc2cccc(F)c2)c1 [Example 12, 2-(4-cyclopropylmethanesulfonylphenyl)-N-[3-(3-fluorophenoxy)-4-(4-fluorophenyl)phenyl]acetamide]
- IC50: ≤ 100 nM

Compound: O=C(Cc1ccc(S(=O)(=O)CC2CC2)cc1)Nc1ccc(-c2cccc(F)c2)c(Oc2cc(F)cc(F)c2)c1 [Example 13, 2-(4-cyclopropylmethanesulfonylphenyl)-N-[3-(3,5-difluorophenoxy)-4-(3-fluorophenyl)phenyl]acetamide]
- IC50: ≤ 100 nM

Compound: COc1cccc(Oc2cc(NC(=O)Cc3ccc(S(=O)(=O)NC4CC4)cc3)ccc2-n2cnc(C)c2)c1 [Example 14, 2-[4-(cyclopropylsulfamoyl)phenyl]-N-[3-(3-methoxyphenoxy)-4-(4-methyl-1H-imidazol-1-yl)phenyl]acetamide]
- IC50: ≤ 1000 nM

Compound: COc1cccc(Oc2cc(NC(=O)Cc3ccc(S(=O)(=O)NC4CC4)cc3)ccc2-c2cccc(F)c2)c1 [Example 16, 2-[4-(cyclopropylsulfamoyl)phenyl]-N-[4-(3-fluorophenyl)-3-(3-methoxyphenoxy)phenyl]acetamide]
- IC50: ≤ 1000 nM

Compound: O=C(Cc1ccc(S(=O)(=O)NC2CC2)cc1)Nc1ccc(-c2cccc(F)c2)c(Oc2cccc(Cl)c2)c1 [Example 17, N-[3-(3-chlorophenoxy)-4-(3-fluorophenyl)phenyl]-2-[4-(cyclopropylsulfamoyl)phenyl]acetamide]
- IC50: ≤ 1000 nM

Compound: O=C(Cc1ccc(S(=O)(=O)NC2CC2)cc1)Nc1ccc(-c2ccc(F)c(F)c2)c(Oc2cccc(Cl)c2)c1 [Example 18, N-[3-(3-chlorophenoxy)-4-(3,4-difluorophenyl)phenyl]-2-[4-(cyclopropylsulfamoyl)phenyl]acetamide]
- IC50: ≤ 1000 nM

Compound: O=C(Cc1ccc(S(=O)(=O)NC2CC2)cc1)Nc1ccc(-c2cccc(F)c2)c(Oc2cccc(C(F)(F)F)c2)c1 [Example 19, 2-[4-(cyclopropylsulfamoyl)phenyl]-N-[4-(3-fluorophenyl)-3-[3-(trifluoromethyl)phenoxy]phenyl]acetamide]
- IC50: ≤ 1000 nM

Compound: O=C(Cc1ccc(S(=O)(=O)CC2CC2)cc1)Nc1nc(-c2ccccc2)c(Oc2ccccc2)s1 [Example 20, 2-(4-cyclopropylmethanesulfonylphenyl)-N-(5-phenoxy-4-phenyl-1,3-thiazol-2-yl)acetamide]
- IC50: ≤ 1000 nM

Compound: O=C(Cc1ccc(S(=O)(=O)CC2CC2)cc1)Nc1nc(-c2ccccc2)c(Oc2cccnc2)s1 [Example 21, 2-(4-cyclopropylmethanesulfonylphenyl)-N-[4-phenyl-5-(pyridin-3-yloxy)-1,3-thiazol-2-yl]acetamide]
- IC50: ≤ 1000 nM

Compound: O=C(Cc1ccc(S(=O)(=O)CC2CC2)cc1)Nc1nc(-c2ccccc2)c(C(=O)c2ccccc2)s1 [Example 22, N-(5-benzoyl-4-phenyl-1,3-thiazol-2-yl)-2-(4-cyclopropylmethanesulfonylphenyl)acetamide]
- IC50: ≤ 100 nM

Compound: O=C(Cc1ccc(S(=O)(=O)CC2CC2)cc1)Nc1nc(-c2cccc(Cl)c2)c(C(=O)c2ccc(Cl)cc2)s1 [Example 23, N-[5-(4-chlorobenzoyl)-4-(3-chlorophenyl)-1,3-thiazol-2-yl]-2-(4-cyclopropylmethanesulfonylphenyl)acetamide]
- IC50: ≤ 100 nM

Compound: O=C(Cc1ccc(S(=O)(=O)CC2CC2)cc1)Nc1cc(-c2ccccc2)cs1 [Example 24, 2-(4-cyclopropylmethanesulfonylphenyl)-N-(4-phenylthiophen-2-yl)acetamide]
- IC50: ≤ 1000 nM

Compound: O=C(Cc1ccc(S(=O)(=O)CC2CC2)cc1)Nc1cc(-c2cccnc2)cs1 [Example 25, 2-(4-cyclopropylmethanesulfonylphenyl)-N-[4-(pyridin-3-yl)thiophen-2-yl]acetamide]
- IC50: ≤ 1000 nM

Compound: O=C(Cc1ccc(S(=O)(=O)NC2CC2)cc1)Nc1nc(-c2ccccc2)c(C(=O)c2ccccc2)s1 [Example 26, N-(5-benzoyl-4-phenyl-1,3-thiazol-2-yl)-2-[4-(cyclopropylsulfamoyl)phenyl]acetamide]
- IC50: ≤ 100 nM
